Data published in patent US20220057378A1, “MICROBIAL MICROFLUIDIC BIOSENSOR” (priority 2015, published 2022).
Where two headings read alike, the source gives them in different places.

Tests used:
As3 = assay: microplate specificity test with on- and off-target heavy metals (fluorescence); type: cell-based, E. coli; details: on-target = 1, no-toxin control = 0; As 1.3, Cd 0.44, Cr(VI) 2, Cu 20, Pb 1, Hg 0.1, Co 20, Fe 500, Ni 1.7, Zn 7.6 μM
Source text: (§1) Each column represents the fluorescence response of a strain to the on-target metal (normalized to “1”) and all off-target metals, where “0” represents the unchanged response for the no-toxin control.
(§2) Although the ability to sense cobalt, iron, nickel, and zinc is of secondary importance, these heavy metals were included as potential off-target inducers because they may be present in the natural water supply under test. […] This combinatorial logic was implemented in algorithms.

Cd1 = assay: as above; type: cell-based, E. coli; details: on-target = 1, no-toxin control = 0; As 1.3, Cd 0.44, Cr(VI) 2, Cu 20, Pb 1, Hg 0.1, Co 20, Fe 500, Ni 1.7, Zn 7.6 μM
Source text: as §1, §2

Cr5 = assay: as above; type: cell-based, E. coli; details: on-target = 1, no-toxin control = 0, As 1.3, Cd 0.44, Cr(VI) 2, Cu 20, Pb 1, Hg 0.1, Co 20, Fe 500, Ni 1.7, Zn 7.6 μM
Source text: as §1, §2

Cu1 = assay: as above; type: cell-based, E. coli; details: on-target = 1, no-toxin control = 0; As 1.3, Cd 0.44, Cr(VI) 2, Cu 20, Pb 1, Hg 0.1, Co 20, Fe 500, Ni 1.7, Zn 7.6 μM
Source text: as §1, §2

Pb2 = assay: as above; type: cell-based, E. coli; details: on-target = 1, no-toxin control = 0; As 1.3, Cd 0.44, Cr(VI) 2, Cu 20, Pb 1, Hg 0.1, Co 20, Fe 500, Ni 1.7, Zn 7.6 μM
Source text: as §1, §2

E. coli MG1655 = type: cell-based; details: for Number DE Genes: false discovery rate below 1%
Source text: RNA-Seq results for promoter activation in E. coli MG1655 in response to single and multiple toxin exposures at low and high concentrations: Our analysis of the sequencing data from RNA-Seq experiments to determine candidate genes that are induced upon toxin exposure consisted of three main tasks: sequence alignment, quantification of gene expression, and identification of differentially expressed genes. Sequence alignment: Reads were aligned to the reference E. coli K-12 substr. MG1655 genome using a tolerance of at most two mismatches per alignment to protect against sequencing errors. The alignment was performed using Bowtie software, 5 which is known to be very efficient in aligning reads to a reference genome. Without being limiting, Bowtie software 5 can be used for the alignment. Those skilled in the art will appreciate that there are many such software programs for performing alignments.
Quantification of gene expression: The expression level of each gene was determined as a function of the number of aligned reads mapping to the gene. […] Additionally, we implemented our own algorithms for sequence alignment and quantification of gene expression in order to crosscheck all results.
Identification of differentially expressed genes: Finally, a set of statistical and information theory algorithms were applied in order to extract not only differentially expressed (DE) genes for each toxin with respect to the control samples (pure water) but also toxin-specific genes. DESeq is a standard tool for identifying DE genes that allowed us to select sensitive genes with differential expression between the control samples (pure water) and the cells exposed to toxin. It assumes that the number of counts for each gene across experimental replicates follows a negative binomial distribution (8, 9). We considered genes with a False Discovery Rate (FDR) lower than 1% as DE in order to ensure statistically robust DE genes. […] Additionally, genes with the largest number of counts and expression levels are preferable in order to maximize the signal-to-noise ratio. When it is not possible to find toxin-specific genes, the next generation of good candidates is formed by those genes satisfying the above properties for a small subset of toxins (multiple-toxin response). It is desirable to have single-toxin-specific genes for several of the toxins in the combination in order to determine toxin-specific multi-gene-responses by means of logical operations. […] Therefore, we have developed information theoretic measures to improve the toxin separability. The core idea of the approach is that low entropies (or highly informative genes) correspond to toxin-specific genes, while large entropies (low information) are associated with scenarios in which DE fold-changes across different toxins are similar and should be discarded.
(§3) Milestone 2.1: Expose target cells to toxins of interest over four orders of magnitude of concentration and extract RNA: Three strains of bacteria were exposed to relevant levels of all toxins and extracted RNA. The toxin exposure protocol involves first growing a culture of bacterial cells to mid-log phase (OD≤0.2). […] Finally, cellular RNA was stabilized using Qiagen RNA Protect reagent, the cells were centrifuged, and the pellet was frozen at −80° C. To investigate the cellular RNA response to toxin insult, we exposed E. coli MG1655, E. coli LABEC01, and B. subtilis 168 cells to the toxins and concentrations shown in Table 7 and extracted RNA.
Milestone 2.5: Prepare isolated RNA for Illumina sequencing using vendor provided reagents and carry out sequencing: We have prepared libraries and carried out sequencing for all toxins of interest.

Hg3 = assay: microplate specificity test with on- and off-target heavy metals (fluorescence); type: cell-based, E. coli; details: on-target = 1, no-toxin control = 0, As 1.3, Cd 0.44, Cr(VI) 2, Cu 20, Pb 1, Hg 0.1, Co 20, Fe 500, Ni 1.7, Zn 7.6 μM
Source text: as §1, §2

B. subtilis 168 = assay: RNA-Seq after toxin exposure; type: cell-based
Method: as §3
We used RNA-Seq to verify the nasB promoter in B. subtilis 168 as a sensitive and specific promoter for the last remaining toxin, ammonium (see FIG. 2). […] This is desirable because, unlike the other water toxins of interest, ammonium is expected to increase the growth rate of biosensor cells. In this situation, a “lights-on” sensor could be triggered by any substance that increases the growth rate and resulting GFP production ability of cells, whereas a “lights-off” sensor remains immune to this effect.

GFP sensor strains = assay: SVM classification of GFP sensor responses (toxin / no toxin); type: cell-based; details: from classification accuracy and ROC curves
Source text: Computational models to determine the threshold of detection for specific sensors based on models of experimental GFP responses. We used machine learning techniques to determine the relationships between the GFP output signal and the presence of a toxin. We have created a database containing the collected sensor response data. We have quantified the GFP threshold of detection for each sensor construct. We have constructed Receiver Operating Characteristic (ROC) curves for each sensor to achieve robust sensing. We constructed machine learning models capable of inferring the relationships between the GFP sensor responses and the presence or absence of a toxin at a given concentration. The algorithm learns these relationships from a set of training samples (GFP sensor responses) defined by the set of experimental conditions from which they were generated. The aim of the algorithm is to provide a general method capable of determining the experimental conditions associated with GFP sensor responses through the use of historical data. Specifically, we have built classification models based on Support Vector Machines (SVMs), which is one of the most popular classifiers due to its excellent performance in many contexts and its solid mathematical basis (1). For each toxin and concentration, we solved a binary classification problem in which the positive class represents the presence of the toxin in water and the negative class is associated with clean environments. Patterns were constructed with features containing GFP sensor responses at various timestamps to capture the temporal dynamics of the GFP signal. The optimal meta-parameters of the SVM classifier were determined by applying a 5-crossvalidation during the training phase (2). In order to have a reliable estimate of the performance of the model when deployed in real environments, we measured its performance over a set of samples (test patterns) not seen during the training phase. The SVM's performance was determined by the percentage of test samples correctly labeled as toxin/no toxin (classification accuracy). 80% of samples were used for training the SVM models and the remaining 20% of samples was used to evaluate their effectiveness. We generated 20 random training/test partitions to have an estimate of performance independent of the data partition.
Specifically, we have built classification models based on Support Vector Machines (SVMs), which is one of the most popular classifiers due to its excellent performance in many contexts and its solid mathematical basis. For each toxin and concentration, we solved a binary classification problem in which the positive class represents the presence of the toxin in water and the negative class is associated with clean environments. Patterns were constructed with features containing GFP sensor responses at various timestamps to capture the temporal dynamics of the GFP signal. The optimal meta-parameters of the SVM classifier were determined by applying a 5-crossvalidation during the training phase.
In order to have a reliable estimate of the performance of the model when deployed in real environments, we measured its performance over a set of samples (test patterns) not seen during the training phase. The SVM's performance was determined by the percentage of test samples correctly labeled as toxin/no toxin (classification accuracy). 80% of samples were used for training the SVM models and the remaining 20% of samples was used to evaluate their effectiveness. We generated 20 random training/test partitions based on data collected in single-strain chips (no crosstalk data) to have an estimate of performance.

[1] = tested on: B. subtilis NCIB 3610/Amm3; assay: 18-strain chip induction; type: cell-based; details: 5 ppm NH4-N, GFP production drops
Source text: In an embodiment herein, the toxin response data across 18 unique sensing strains were also collected using a new chip design that houses 16 E. coli strains and 2 B. subtilis strains. The B. subtilis NCIB 3610/Amm3 construct is a “lights-off” sensor, meaning that GFP production drops when ammonium is introduced, following a slight increase due to faster growth on this preferred nitrogen source. […] By combining these sensor responses, we can identify cobalt by the unique response of Pb7 alone and lead by the unique combination of Zn6, Pb7, and Pb8 responses.

cellular esterases = assay: inhibition of cellular esterase activity (CFDA cleavage) in gill chip; type: cell-based, S. cerevisiae; details: 0.725 g/l malathion; two sequential exposures; recovers subsequently
Method: Additional constructs based on this promoter were generated while collecting on-chip response data for all other sensing strains using the sensor prototypes was performed. […] S. cerevisiae was loaded into a gill chip and CFDA (carboxyfluorescein diacetate) was added to the growth medium. […] Because CFDA breaks down in the medium over time thereby increasing the background signal, fresh medium+CFDA was introduced at 1,500 and 2,000 min. This explains the drift in baseline GFP during this period, which can be eliminated in subsequent experiments by mixing dye and medium on-chip.

Mall construct = assay: malathion construct loaded into the sensor device; type: cell-based, E. coli; details: prototype sensor

[Ni] [Nickel]
fluorescence response of strain As3 (on-target arsenic) (As3): −0.08
fluorescence response of strain Cd1 (on-target cadmium) (Cd1): −0.08
fluorescence response of strain Cr5 (on-target chromium(VI)) (Cr5): −0.35
fluorescence response of strain Cu1 (on-target copper) (Cu1): −0.05
fluorescence response of strain Pb2 (on-target lead) (Pb2): 0.16
Number DE Genes (E. coli MG1655; high concentration): 95
Number DE Genes (E. coli MG1655; low concentration): 43

[Fe] [Iron]
fluorescence response of strain As3 (on-target arsenic) (As3): −0.06
fluorescence response of strain Cd1 (on-target cadmium) (Cd1): −0.31
fluorescence response of strain Cr5 (on-target chromium(VI)) (Cr5): 0.86
fluorescence response of strain Cr5 (on-target chromium(VI)) (Cr5; listed as iron): sensitive
fluorescence response of strain Cu1 (on-target copper) (Cu1): 0.17
fluorescence response of strain Hg3 (on-target mercury) (Hg3): −0.38
fluorescence response of strain Pb2 (on-target lead) (Pb2): 0.96
Number DE Genes (E. coli MG1655; high concentration): 70
Number DE Genes (E. coli MG1655; low concentration): 32

Ammonium
response of the nasB promoter (B. subtilis 168): sensitive and specifically downregulated
threshold of detection (GFP sensor strains): one
GFP response of Amm3 strain (lights-off sensor) [1]: respond sensitively

[Zn] [Zinc]
fluorescence response of strain As3 (on-target arsenic) (As3): −0.14
fluorescence response of strain Cd1 (on-target cadmium) (Cd1): −0.09
fluorescence response of strain Cr5 (on-target chromium(VI)) (Cr5): 0.35
fluorescence response of strain Cu1 (on-target copper) (Cu1): −0.08
fluorescence response of strain Hg3 (on-target mercury) (Hg3): 0.78
fluorescence response of strain Hg3 (on-target mercury) (Hg3; listed as zinc): sensitive
fluorescence response of strain Pb2 (on-target lead) (Pb2): 1.06
response of the mntH promoter (E. coli MG1655; RNA-Seq mean fold change): high concentrations of zinc alone
response of the shiA promoter (E. coli MG1655; RNA-Seq mean fold change): high concentrations of zinc alone
response of the yjjZ promoter (E. coli MG1655; RNA-Seq mean fold change): responds monotonically to increasing concentrations
response of the zntA promoter (E. coli MG1655; RNA-Seq mean fold change): shows sensitivity to low and high concentrations
response of the zraP promoter (E. coli MG1655; RNA-Seq mean fold change): responds specifically and monotonically to increasing concentrations
Number DE Genes (E. coli MG1655; high concentration): 596
Number DE Genes (E. coli MG1655; low concentration): 24

CCOC(=O)CC(SP(=S)(OC)OC)C(=O)OCC (stereo not drawn) [Malathion, malathion]
response of the nemR promoter (E. coli MG1655; RNA-Seq mean fold change): responds to high concentrations
Number DE Genes (E. coli MG1655; high concentration): 41
Number DE Genes (E. coli MG1655; low concentration): 370
threshold of detection (GFP sensor strains): 72.5 mg/L
cell fluorescence (CFDA cleavage by cellular esterases) (cellular esterases): significantly drops
response of Mall construct in sensor device (Mall construct): did not produce a discernable response
